Test results reported in patent publication US20120271010A1, “HYDROPHILIC POLYMER COMPOUND HAVING ANTICOAGULATION EFFECT” (TORAY INDUSTRIES, INC., priority 2009, published 2012).

System: blood collected from a volunteer
Assay: Measurement of whole blood clotting time (Sonoclot, ACT ONSET)
Set-up: species or system human
Method: The blood collected from a volunteer and citric acid were mixed at a volume ratio of 9/1 to prepare blood supplemented with citric acid.
In a cuvette (NON-ACTIVATED CLOTTING TEST KIT), 18 μL of physiological saline solution was placed, and 14.8 μL of calcicol was added thereto, followed by further adding 342 μL of blood supplemented with citric acid. Thereafter, the measurement using Sonoclot Blood Coagulation/Platelet Function Analyzer (IMI) was carried out to define the obtained ACT ONSET value as whole blood clotting time. The whole blood clotting time of the blood collected by volunteer was 545 seconds.

## CC1CNc2c(cccc2S(=O)(=O)N[C@@H](CCCNC(=N)N)C(=O)N2CC[C@@H](C)C[C@@H]2C(=O)O)C1 (mixture of isomers) [argatroban, (2R,4R)-4-methyl-1-((2S)-2-{[(3RS)-3-methyl-1,2,3,4-tetrahydroquinolin-8-yl]sulfonyl}amino-5-guanidinopentanoyl)piperidin-2-carboxylic acid]
2 μM argatroban solution in place of physiological saline solution
  Whole blood clotting time: 531 s
10 μM argatroban solution in place of physiological saline solution
  Whole blood clotting time: 746 s
20 μM argatroban solution in place of physiological saline solution
  Whole blood clotting time: 849 s
